According to ChEMBL document CHEMBL3232940, “TNF-α inhibition elicited by mansoins A and B, heterotrimeric flavonoids isolated from Mansoa hirsuta” (J Nat Prod, 2014):

Assay: Antiinflammatory activity in human THP1 cells assessed as inhibition of LPS-induced TNF-alpha production preincubated for 3 hrs followed by LPS-challenge measured after overnight incubation by sandwich ELISA
Type: functional, cell-based
Conditions: THP-1

IC50 [µM] | Structure (SMILES)
48.1 | O=C1C[C@@H](c2ccc(O)c(O[C@@H]3O[C@H](CO)[C@@H](O)[C@H](O)[C@H]3O)c2)Oc2c1c(O)c([C@@H](CCc1ccc(O)cc1)c1ccc(O)cc1O[C@@H]1O[C@H](CO)[C@@H](O)[C@H](O)[C@H]1O)c(O)c2[C@@H](CCc1ccc(O)cc1)c1ccc(O)cc1O[C@@H]1O[C@H](CO)[C@@H](O)[C@H](O)[C@H]1O
20 | O=C1C[C@@H](c2ccc(O)c(O)c2)Oc2c1c(O)c([C@@H](CCc1ccc(O)cc1)c1ccc(O)cc1O[C@@H]1O[C@H](CO)[C@@H](O)[C@H](O)[C@H]1O)c(O)c2[C@@H](CCc1ccc(O)cc1)c1ccc(O)cc1O[C@@H]1O[C@H](CO)[C@@H](O)[C@H](O)[C@H]1O
